System: rabbit aorta rings
Assay: Vasorelaxant effect in vitro (phenylephrine-contracted rabbit aorta rings)
Details: Oryctolagus cuniculus; concentration reducing height of phenylephrine-induced contraction of rabbit aorta rings by 50%; 0.1% DMSO
Procedure: Rabbits are stunned by a blow to the back of the neck and are exsanguinated. The aorta is removed, freed of adherent tissue, divided into rings 1.5 mm wide and put singly under tension in 5 ml organ baths containing carbogen-gassed Krebs-Henseleit solution at 37° C. with the following composition (mM): NaCl: 119; KCl: 4.8; CaCl2×2 H2O: 1; MgSO4×7 H2O; 1.4; KH2PO4: 1.2; NaHCO3: 25; glucose: 10. The force of contraction is detected with Statham UC2 cells, amplified and digitized via A/D converters (DAS-1802 HC, Keithley Instruments Munich) and recorded in parallel on chart recorders. A contraction is generated by adding phenylephrine to the bath cumulatively in increasing concentration. After several control cycles, the substance to be investigated is investigated in each further run in increasing dosage in each case, and the height of the contraction is compared with the height of the contraction reached in the last preceding run. The concentration necessary to reduce the height of the control value by 50% (IC50) is calculated from this. The standard application volume is 5 μl, and the DMSO content in the bath solution corresponds to 0.1%.

SMILES | IC50
Nc1nc(-c2nn(Cc3ccccc3F)c3ncccc23)ncc1OS(=O)(=O)CCl [Example 1, 4-Amino-2-[1-(2-fluorobenzyl)-1H-pyrazolo[3,4-b]pyridin-3-yl]-5-pyrimidinyl chloromethanesulfonate] | 700 nM
CS(=O)(=O)Oc1cnc(-c2nn(Cc3ccccc3F)c3ncccc23)nc1N [Example 2] | 580 nM
Nc1nc(-c2nn(Cc3ccccc3F)c3ncccc23)ncc1OS(=O)(=O)C1CC1 [Example 4] | 710 nM
CC(C)S(=O)(=O)Oc1cnc(-c2nn(Cc3ccccc3F)c3ncccc23)nc1N [Example 5] | 520 nM
Nc1nc(-c2nn(Cc3ccccc3F)c3ncccc23)ncc1OS(=O)(=O)c1ccccc1 [Example 10] | 2020 nM

Now those with a lower IC50, led by results:

IC50 | SMILES
300 nM | CCS(=O)(=O)Oc1cnc(-c2nn(Cc3ccccc3F)c3ncccc23)nc1N [Example 3]
440 nM | Nc1nc(-c2nn(Cc3ccccc3F)c3ncccc23)ncc1OS(=O)(=O)CCCC(F)(F)F [Example 7]
